Measured values as given in PubChem BioAssay AID686975 (The Scripps Research Institute Molecular Screening Center, 2013).
One block for each compound: values may come before it. Calls of active or inactive are those of the source. No rule for the calls is given here.

Assays:
HSP70 = test: heat shock protein up-regulation by compounds – cell-based, Western blot, chemiluminescence, late-stage follow-up (AID 686975); details: cells, western blot Hsp70/Hsp90 up-regulation, active compounds read high
[1] = target: Heat shock protein HSP 90-alpha (Homo sapiens) (UniProt P07900); test: as above; details: cells, western blot Hsp70/Hsp90 up-regulation, active compounds read high

up-regulation ([1]; HSP90, high dose (five times the IC50) 17 µM, low dose (half the IC50) 1.7 µM): < 10%
SMILES: O=C(Nc1ccc(F)cc1)c1coc(=O)c(Br)c1
up-regulation (HSP70; high dose (five times the IC50) 17 µM, low dose (half the IC50) 1.7 µM): < 10%

up-regulation ([1]; HSP90, high dose (five times the IC50) 111 µM, low dose (half the IC50) 11.1 µM): < 10%
SMILES: CCOc1ccc(-c2nc(CN3CCCCC3CCn3cccn3)c(C)o2)cc1 (configuration not stated)
up-regulation (HSP70; high dose (five times the IC50) 111 µM, low dose (half the IC50) 11.1 µM): < 10%

up-regulation ([1]; HSP90, high dose (five times the IC50) 37.5 µM, low dose (half the IC50) 3.8 µM): < 10%
SMILES: CC(C)CNC(=O)c1coc(=O)c(Br)c1
up-regulation (HSP70; high dose (five times the IC50) 37.5 µM, low dose (half the IC50) 3.8 µM): < 10%

up-regulation ([1]; HSP90, high dose (five times the IC50) 17.5 µM, low dose (half the IC50) 1.8 µM): < 10%
SMILES: O=C(NCc1cccnc1)c1coc(=O)c(Br)c1
up-regulation (HSP70; high dose (five times the IC50) 17.5 µM, low dose (half the IC50) 1.8 µM): < 10%

up-regulation ([1]; HSP90, high dose (five times the IC50) 9 µM, low dose (half the IC50) 0.9 µM): < 10%
SMILES: CC(NC(=O)c1coc(=O)c(Br)c1)C1C2CCC3CC(C2)CC31 (configuration not stated)
up-regulation (HSP70; high dose (five times the IC50) 9 µM, low dose (half the IC50) 0.9 µM): < 10%

up-regulation ([1]; HSP90, high dose (five times the IC50) 12 µM, low dose (half the IC50) 1.2 µM): < 10%
SMILES: COc1ccc(NC(=O)c2coc(=O)c(Br)c2)cc1
up-regulation (HSP70; high dose (five times the IC50) 12 µM, low dose (half the IC50) 1.2 µM): < 10%

up-regulation ([1]; HSP90, high dose (five times the IC50) 136.5 µM, low dose (half the IC50) 13.7 µM): < 50% (inactive)
SMILES: Cc1cccc(NC(=O)c2coc(=O)c(Br)c2)n1
up-regulation (HSP70; high dose (five times the IC50) 136.5 µM, low dose (half the IC50) 13.7 µM): < 10%

up-regulation ([1]; HSP90, high dose (five times the IC50) 246 µM, low dose (half the IC50) 24.6 µM): < 10%
SMILES: COC(=O)c1ccc2nc(NC(=O)C3CC3)sc2c1
up-regulation (HSP70; high dose (five times the IC50) 246 µM, low dose (half the IC50) 24.6 µM): < 10%

up-regulation ([1]; HSP90, high dose (five times the IC50) 44.5 µM, low dose (half the IC50) 4.5 µM): < 10%
SMILES: Cc1cc(NC(=O)c2coc(=O)c(Br)c2)ccc1C(C)C
up-regulation (HSP70; high dose (five times the IC50) 44.5 µM, low dose (half the IC50) 4.5 µM): < 10%

up-regulation ([1]; HSP90, high dose (five times the IC50) 64.5 µM, low dose (half the IC50) 6.5 µM): < 50% (inactive)
SMILES: CCCCCCCCOc1ccc(NC(=O)c2coc(=O)c(Br)c2)cc1
up-regulation (HSP70; high dose (five times the IC50) 64.5 µM, low dose (half the IC50) 6.5 µM): < 10%

up-regulation ([1]; HSP90, high dose (five times the IC50) 10.5 µM, low dose (half the IC50) 1.1 µM): < 10%
SMILES: O=C(NCCc1ccc(F)cc1)c1coc(=O)c(Br)c1
up-regulation (HSP70; high dose (five times the IC50) 10.5 µM, low dose (half the IC50) 1.1 µM): < 10%

up-regulation ([1]; HSP90, high dose (five times the IC50) 114 µM, low dose (half the IC50) 11.4 µM): < 50% (inactive)
SMILES: CCCCOc1cccc(NC(=O)c2coc(=O)c(Br)c2)c1
up-regulation (HSP70; high dose (five times the IC50) 114 µM, low dose (half the IC50) 11.4 µM): < 10%

up-regulation ([1]; HSP90, high dose (five times the IC50) 147 µM, low dose (half the IC50) 14.7 µM): < 10%
SMILES: O=C(Nc1ccccc1I)c1coc(=O)c(Br)c1
up-regulation (HSP70; high dose (five times the IC50) 147 µM, low dose (half the IC50) 14.7 µM): < 10%

up-regulation ([1]; HSP90, high dose (five times the IC50) 53.5 µM, low dose (half the IC50) 5.4 µM): < 10%
SMILES: CC(=O)c1ccc(NC(=O)c2coc(=O)c(Br)c2)cc1
up-regulation (HSP70; high dose (five times the IC50) 53.5 µM, low dose (half the IC50) 5.4 µM): < 10%

up-regulation ([1]; HSP90, high dose (five times the IC50) 24 µM, low dose (half the IC50) 2.4 µM): < 10%
SMILES: O=C(NCc1ccco1)c1coc(=O)c(Br)c1
up-regulation (HSP70; high dose (five times the IC50) 24 µM, low dose (half the IC50) 2.4 µM): < 10%

up-regulation ([1]; HSP90, high dose (five times the IC50) 60.5 µM, low dose (half the IC50) 6.1 µM): < 10%
SMILES: COc1ccc(NC(=O)c2ccc(NC(=O)c3coc(=O)c(Br)c3)cc2)cc1
up-regulation (HSP70; high dose (five times the IC50) 60.5 µM, low dose (half the IC50) 6.1 µM): < 10%
